Read-outs that look alike come from different tables or passages of the source.
Legend:
asthma model mice = assay: Anti-asthma pharmacodynamic experiment: airway hyperresponsiveness (Penh) after methacholine challenge; format: in vivo, female BALB/c mice; details: for Effects on airway hyperresponsiveness (Penh values) in mice: compared with the model group
Procedure: Pharmacological Example 4: Pharmacodynamic Experiment on Anti-Asthma
The suspensions were stored at room temperature protected from light until use.
Positive control drug: Budesonide Suspension for Inhalation (specification: 2 mL: 1 mg; AstraZeneca Inc.; Lot No. : 327392) was diluted with injection-grade sodium chloride solution to 0.3 mg/ml as the positive control drug, and stored at room temperature protected from light until use.
Sixty female BALB/c mice underwent a one-week adaptive feeding period. Ten mice were randomly selected as the blank control group, while 50 mice were selected to establish asthma models.
From days 21 to 23 after sensitization, the mice in the model group and drug administration group were exposed to a 30-minute aerosol challenge with 5% OVA, while the mice in the blank control group were exposed to normal saline aerosol for the same duration.
Airway responsiveness was measured in all groups of mice after the last challenge. The mice were placed into a plethysmography chamber, and baseline Penh values were recorded. Subsequently, the mice were challenged with aerosolized methacholine at concentrations from low to high of 0, 6.25, and 12.5 mg/mL, with an aerosol volume of 100 µ L each time for 60 s. […] Penh values were then recorded for 3 min and averaged to compare the airway responsiveness of each group of mice.

[1] = test system: intraocular pressure of guinea pigs; assay: Adverse reactions of continuous ocular administration: intraocular pressure; format: in vivo
Procedure: Pharmacological Example 9: Experiment on Adverse Reactions of Continuous Ocular Administration in Guinea Pigs
Test samples: Compounds 17 and 23 were prepared as 5 mg/5 mL ophthalmic suspensions with reference to the formulation of Fluorometholone Eye Drops, and stored at room temperature protected from light until use.
Positive control drug: Fluorometholone Eye Drops (specification: 5 mL/5 mg; Santen Pharmaceutical (CHINA) Co., Ltd.; Lot No.: 1FM6545), Loteprednol Etabonate Eye Drops (specification 0.5% (5 mg/mL); Shandong Bausch & Lomb Freda Pharmaceutical Co., Ltd; Lot No. 386521), stored at room temperature protected from light until use.
Animals: 50 guinea pigs, conventional grade, with an equal number of males and females, weighing 300-350 g..
Animal grouping: After 5 days of adaptive feeding, the guinea pigs were randomly divided into 5 groups based on body weight. Group 1 was the blank control group, and 50 µL of normal saline was dropped into the eyes (bilateral) of the guinea pigs. Groups 2 to 5 were the fluorometholone group, loteprednol group, compound 17 group, and compound 23 group, respectively, and the corresponding drugs were dropped into the eyes (bilateral) of the guinea pigs. Table 19. Animal grouping and drug administration dosages for the experiment on adverse reactions of continuous ocular administration in guinea pigs
Intraocular pressure measurement time: The intraocular pressure of animals in each group was measured before administration and on days 7, 14, 21, and 28 post-administration.

[2] = Stability in animal lung tissue homogenate, skin tissue homogenate and aqueous humor; format: in vitro ADME
[3] = test system: inflammatory cytokines (TNF-α); assay: Anti-uveitis pharmacodynamic experiment (LPS model): inflammatory cytokines in aqueous humor (ELISA); format: in vivo, male SD rats; details: values not given
Procedure: Pharmacological Example 5. Pharmacodynamic Experiment on Anti-Uveitis
Test samples: Compounds 23 and 26 were prepared as 5 mg/5 mL ophthalmic suspensions with reference to the formulation of Fluorometholone Eye Drops, and stored at room temperature protected from light until use.
Positive control drug: Fluorometholone Eye Drops (specification: 5 mL/5 mg; Santen Pharmaceutical (CHINA) Co., Ltd.; Lot No. : J20180068) was used as the positive control drug and stored at room temperature protected from light until use.
Fifty male SD rats underwent a one-week adaptive feeding period. The animals were randomly divided into 5 groups: Group 1 served as the blank control group, and Groups 2 to 5 were the model group, fluorometholone group, compound 23 group, and compound 26 group, respectively. Groups 2 to 5 were used to establish rat uveitis models by single subcutaneous injection of 1 mg/kg LPS (Salmonella; Sigma; Lot No. 0000164114) into the plantar tissue of the hindpaw. Salmonella endotoxin was dissolved in normal saline to prepare an injection solution at a concentration of 2 mg/mL, which was injected subcutaneously at 1 mg/kg into the plantar tissue of one paw of the rats. Group 1 was injected with an equal volume of normal saline.
After modeling, 40 µL of normal saline was administered to the eyes (bilateral) of the rats in the blank control group and model group, and 40 µL of the corresponding drugs were administered to the eyes (bilateral) of the […] in the compound 23 group, compound 26 group, and positive drug fluorometholone group, 3 times a day for 2 days. Table 8. Animal grouping and drug administration dosages
Thirty hours after modeling, aqueous humor was collected from both eyes of rats, and partial eyeball tissues of rats were collected. The level of the inflammatory cytokines (TNF-α) was detected using a rat ELISA assay kit.
Statistical analysis was performed using SPSS software. Measurement data were expressed as mean ± standard deviation. One-way ANOVA was used for intergroup comparisons. For data with homogeneous variance, LSD test was used; for data with heterogeneous variance, Dunnett-t test was used. A value of P < 0.05 was considered statistically significant.

[4] = molecular target: T1, mineralocorticoid receptor (MR) (Homo sapiens, UniProt P08235); assay: Assay for agonist activity on mineralocorticoid receptor (luciferase reporter, HEK293 cells transfected with pBIND-MR plasmid); format: cell-based; details: for Target selectivity MR/GR: ratio of EC50 values
T1 sequence (P08235 726-984): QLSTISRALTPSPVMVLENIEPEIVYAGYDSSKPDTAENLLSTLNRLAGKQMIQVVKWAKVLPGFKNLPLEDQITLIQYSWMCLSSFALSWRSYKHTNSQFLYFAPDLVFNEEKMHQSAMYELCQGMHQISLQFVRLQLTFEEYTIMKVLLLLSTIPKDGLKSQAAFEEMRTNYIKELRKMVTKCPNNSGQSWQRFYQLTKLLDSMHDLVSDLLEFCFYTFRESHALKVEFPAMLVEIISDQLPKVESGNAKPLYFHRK
Method in brief: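 HEK293 cells transiently transfected with pBIND-MR or pBIND-PR, seeded in phenol red-free DMEM with 5% charcoal-stripped serum. Compounds tested as 12-point 4-fold dilutions from 50 µM in duplicate, 0.1% DMSO blank. Luciferase luminescence read, EC50 by nonlinear fit.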

[5] = test system: dry eye syndrome model New Zealand rabbits; assay: Dry eye syndrome experiment (benzalkonium chloride model): tear secretion test with phenol red cotton threads; format: in vivo, male New Zealand White rabbits; details: for tear secretion: compared with the model group
Procedure: Positive control drug: Fluorometholone Eye Drops (specification: 5 mL/5 mg; Santen Pharmaceutical (CHINA) Co., Ltd.; Lot No.: 1FM6625) was used as the positive control drug and stored at room temperature protected from light until use.
Thirty male New Zealand White rabbits (conventional grade) were prepared. Six rabbits were randomly selected as the blank control group, and the remaining animals were administered 0.1% benzalkonium chloride to the left eye twice daily (morning and evening) , 10 µL/animal each time. On day 6 of modeling, tear secretion was measured using phenol red cotton threads to determine whether the model was successfully established. […] During the administration, all animals except the blank control group were administered 10 µL of 0.1% benzalkonium chloride to the left eye once daily to maintain dry eye symptoms..
• Test time: D3, D7, D15; • Test animals: All animals were tested before grouping; all enrolled surviving animals were tested after administration; • Test method: Tear secretion was measured using phenol red cotton threads. The tear secretion test paper was folded and placed at the middle and outer 1/3 of the rabbit palpebral conjunctival sac for 1 min. The test paper was then removed, observed, and recorded for its wetting length. The test was repeated 3 times, and the values were averaged.
The normality and homogeneity of variance were tested by Levene's test. If there was no statistical significance (P > 0.05), one-way analysis of variance (ANOVA) was used for statistical analysis. If ANOVA was statistically significant (P ≤ 0.05), LSD test (parametric method) was used for comparative analysis. If the variance was heterogeneous (P ≤ 0.05), Kruskal-Wallis test was used. If the Kruskal-Wallis test was statistically significant (P ≤ 0.05), Dunnett's test (nonparametric method) was used for comparative analysis.

psoriasis model mice = assay: Psoriasis experiment (imiquimod model): skin lesion (PASI) score; format: in vivo; details: for PASI scores: compared with the model group
Procedure: Positive control drug: Fluticasone Propionate Cream (specification: 0.05% × 15 g, Zhejiang Xianju Pharmaceutical Co. Ltd., Lot No. 211106), stored at room temperature protected from light until use.
Adult mice were selected, and the skin of 2 cm × 3 cm on the back of mice was locally depilated. The mice in the model group and drug administration group were applied with 62.5 mg of 5% imiquimod cream on their back for modeling, while the mice in the blank control group were applied with medical petroleum jelly on their back daily. The above procedures were performed once a day for 7 consecutive days.
The mice in the drug administration group were applied with the corresponding drugs on their backs daily at a dose of 0.2 g per mouse, while the blank control group and the model group were only applied with 0.2 g of the test sample drug matrix. One hour after drug administration, the drugs were wiped off with sterile cotton swabs, followed by the application of imiquimod. The above procedures were performed once a day for 7 consecutive days.
Referring to the clinical Psoriasis Area and Severity Index (PASI) scoring criteria, erythema, scaling, and thickness at the skin lesion sites were evaluated on a 0-4 scale on day 8 of modeling, and the total score was obtained by summing the three items.
• (1) Erythema: a score of 0 points indicates no erythema, a score of 1 point indicates erythema appearing light red, a score of 2 points indicates erythema appearing red, a score of 3 points indicates erythema appearing dark red, and a score of 4 points indicates erythema appearing extremely deep red; • (2) Scaling: a score of 0 points indicates no scaling on the surface, a score of 1 point indicates partial skin lesions covered with scaling, a score of 2 points indicates most skin lesions covered with scaling, a score of 3 points indicates almost all skin lesions covered with scaling in layers, and a score of 4 points indicates all skin lesions covered with scaling; • (3) Thickness: a score of 0 points indicates skin lesions flush with normal skin, a score of 1 point indicates skin lesions slightly elevated above normal skin surface, a score of 2 points indicates moderate elevation of skin lesions, a score of 3 points indicates thickened skin lesions with obvious elevation, and a score of 4 points indicates highly thickened skin lesions with prominent elevation.
Statistical analysis was performed using SPSS software, and the results were expressed as mean ± standard deviation. One-way ANOVA was used for intergroup comparisons. For data with homogeneous variance, the LSD test was used; for data with heterogeneous variance, the Dunnett-t test was used. A value of P < 0.05 was considered statistically significant.

Row | SMILES | Effects on airway hyperresponsiveness (Penh values) in mice (asthma model mice) | intraocular pressure after continuous ocular administration [1] | stability in animal lung tissue homogenate, skin tissue homogenate, and aqueous humor [2] | inflammatory cytokines in aqueous humor [3] | Target selectivity MR/GR [4] | tear secretion [5] | PASI scores (psoriasis model mice) | EC50 [4] [nM] | also measured
1 | C[C@]12C=CC(=O)C=C1CC[C@H]1[C@@H]3C[C@H]4OC(c5ccc(CSC6CCOC6=O)cc5)O[C@@]4(C(=O)CO)[C@@]3(C)C[C@H](O)[C@@]12Cl (stereo partly drawn) [Compound 23, (6aS,6bR,7S,8aS,8bS,11aR,12aS,12bS)-6b-Chloro-7-hydroxy-8b-(2-hydroxyacetyl)-6a,8a-dimethyl-10-(4-(((2-oxotetrahydrofuran-3-yl)thio)methyl)phenyl)-1,2,6a,6b,7,8,8a,8b,11a,12,12a,12b-do decahydro-4H-naphtho[2',1':4,5]indeno[1,2-d][1,3]dioxol-4-one] | significantly decreased the Penh values in mice | no abnormal intraocular pressure was observed | relatively stable | suppressed inflammatory cytokines in aqueous humor | > 2.4×10^5 | significantly increased the tear secretion on day 15 | PASI scores significantly decreased on day 7 |  | Penh values in mice, Methacholine concentration (mg/ml) 0 (asthma model mice; 0.3 mg/mL, 50 µL intratracheally once daily for 3 days, methacholine 0 mg/ml): 1.12 ± 0.30; Penh values in mice, Methacholine concentration (mg/ml) 6.25 (asthma model mice; 0.3 mg/mL, 50 µL intratracheally once daily for 3 days, methacholine 6.25 mg/ml): 1.55 ± 0.29; Penh values in mice, Methacholine concentration (mg/ml) 12.5 (asthma model mice; 0.3 mg/mL, 50 µL intratracheally once daily for 3 days, methacholine 12.5 mg/ml): 1.84 ± 0.38; Intraocular pressure of guinea pigs (mmHg) D0 ([1]; D0, before administration, 50 µL/eye (compounds and fluorometholone 1 mg/mL, loteprednol 5 mg/mL)): 13.5 ± 0.6 mmHg; Intraocular pressure of guinea pigs (mmHg) D7 ([1]; D7, 50 µL/eye (compounds and fluorometholone 1 mg/mL, loteprednol 5 mg/mL)): 15.3 ± 1.7 mmHg; Intraocular pressure of guinea pigs (mmHg) D14 ([1]; D14, 50 µL/eye (compounds and fluorometholone 1 mg/mL, loteprednol 5 mg/mL)): 15.3 ± 1.5 mmHg; Intraocular pressure of guinea pigs (mmHg) D21 ([1]; D21, 50 µL/eye (compounds and fluorometholone 1 mg/mL, loteprednol 5 mg/mL)): 15.3 ± 2.2 mmHg; Intraocular pressure of guinea pigs (mmHg) D28 ([1]; D28, 50 µL/eye (compounds and fluorometholone 1 mg/mL, loteprednol 5 mg/mL)): 14.9 ± 1.6 mmHg; EC50 ([4]; EC50 of agonist activity, HEK293 reporter cells, top concentration 50 µM, read-out: Nuclear receptor enzyme activity (nM) MR): > 50000 nM; Wetting length of phenol red cotton threads (mm) D0 ([5]; D0, 1 mg/mL, 50 µL/eye, 3 times a day for 14 days): 28.24 ± 6.22 mm; Wetting length of phenol red cotton threads (mm) D3 ([5]; D3, 1 mg/mL, 50 µL/eye, 3 times a day for 14 days): 29.4 ± 4.63 mm; Wetting length of phenol red cotton threads (mm) D7 ([5]; D7, 1 mg/mL, 50 µL/eye, 3 times a day for 14 days): 31.88 ± 6.20 mm; Wetting length of phenol red cotton threads (mm) D15 ([5]; D15, 1 mg/mL, 50 µL/eye, 3 times a day for 14 days): 36.05 ± 5.74" mm; PASI score (psoriasis model mice; day 8 of modeling, 0.2 g cream per mouse daily for 7 days (compounds 1 mg/g, fluticasone propionate 0.5 mg/g)): 3.8 ± 1.0
2 | C[C@]12C=CC(=O)C=C1CC[C@H]1[C@@H]3C[C@H]4OC(c5ccc(CSC6COC(=O)C6)cc5)O[C@@]4(C(=O)CO)[C@@]3(C)C[C@H](O)[C@@]12Cl (stereo partly drawn) [Compound 26, (6aS,6bR,7S,8aS,8bS,11aR,12aS,12bS)-6b-Chloro-7-hydroxy-8b-(2-hydroxyacetyl)-6a,8a-dimethyl-10-(4-(((5-oxotetrahydrofuran-3-yl)thio)methyl)phenyl)-1,2,6a,6b,7,8,8a,8b,11a,12,12a,12b-do decahydro-4H-naphtho[2',1':4,5]indeno[1,2-d][1,3]dioxol-4-one] | significantly decreased the Penh values in mice | no abnormal intraocular pressure observed | relatively stable | suppressed inflammatory cytokines in aqueous humor |  | significantly increased the tear secretion | significantly decreased PASI scores on day 7 |  | target selectivity ([4]; MR/GR and PR/GR, same experimental conditions): target selectivity comparable to that of compound 23
3 | C[C@]12C=CC(=O)C=C1[C@@H](F)C[C@H]1[C@@H]3C[C@H]4OC(c5ccc(CSC6CCOC6=O)cc5)O[C@@]4(C(=O)SCF)[C@@]3(C)C[C@H](O)[C@@]12F (stereo partly drawn) [Compound 34, S-(Fluoromethyl) (2S,6aS,6bR,7S,8aS,8bS,11aR,12aS,12bS)-2,6b-difluoro-7-hydroxy-6a,8a-dimethyl-4-oxo-10-(4-( ((2-oxotetrahydrofuran-3-yl)thio)methyl)phenyl)-1,2,4,6a,6b,7,8,8a,11a,12,12a,12b-dodecahydro-8bH-naphtho[2',1':4,5]indeno[1,2-d][1,3]dioxole-8b-carbothioate] | significantly decreased the Penh values in mice | no abnormal intraocular pressure observed | relatively stable | suppressed inflammatory cytokines in aqueous humor | > 5.0×10^5 | significantly increased the tear secretion | significantly decreased PASI scores on day 7 | > 50000 | 
4 | C[C@]12C=CC(=O)C=C1[C@@H](F)C[C@H]1[C@@H]3C[C@H]4OC(c5ccc(CSC6CCOC6=O)cc5)O[C@@]4(C(=O)SCC#N)[C@@]3(C)C[C@H](O)[C@@]12F (stereo partly drawn) [Compound 35, S-(Cyanomethyl) (2S,6aS,6bR,7S,8aS,8bS,11aR,12aS,12bS)-2,6b-difluoro-7-hydroxy-6a,8a-dimethyl-4-oxo-10-(4-( ((2-oxotetrahydrofuran-3-yl)thio)methyl)phenyl)-1,2,4,6a,6b,7,8,8a,11a,12,12a,12b-dodecahydro-8bH-naphtho[2',1':4,5]indeno[1,2-d][1,3]dioxole-8b-carbothioate] | significantly decreased the Penh values in mice | no abnormal intraocular pressure observed | relatively stable | suppressed inflammatory cytokines in aqueous humor | > 2.4×10^5 | significantly increased the tear secretion | significantly decreased PASI scores on day 7 | > 50000 | 

— EP4635969A1, “NOVEL GLUCOCORTICOID, METHOD FOR PREPARING SAME, AND USE THEREOF” (Tianjin Pharmaceutical Biotechnology Co., Ltd., priority 2022, dated 2024)
